# Measured values published in patent publication US20090264375A1, “INTRAOCULAR IRRIGATING SOLUTIONS AND METHODS FOR TREATING CORNEAL EDEMA” (ALCON RESEARCH, LTD., priority 2007, published 2009).
# Assay: GSSG content after autoclaving at F0=8
# Format: physicochemical
# Conditions: 0.4% histidine in reconstituted BSS PLUS, autoclaved
# Source text: The composition of reconstituted BSS PLUS® Sterile Intraocular Irrigating Solution is shown below in Table 1. The reconstituted product was used as a control solution. A sample of the reconstituted product was then spiked with 0.4% histidine to form the experimental solution. The control solution and the experimental solution were then each divided into two replicates each. The pH of one control and one experimental replicate was then adjusted to pH 6.8 and the pH of the other replicate was adjusted to pH 7.4. Both sets of the solutions were then autoclaved at F0=8. After autoclaving, GSSG contents in all the solutions were determined and the results are tabulated in Table 2 as percent GSSG remaining of the label claim in BSS PLUS® Sterile Intraocular Irrigating Solution.
# All of the above solutions were autoclaved in the same cycle. However, in this particular experiment, the sterilizer used was not capable of finely regulating F0 and thus significant degradation of GSSG occurred.
smiles,measurement,value
N[C@@H](Cc1c[nH]cn1)C(=O)O [histidine],Effect on GSSG stability in solution,stabilizes GSSG in solution
